Source: US11053204B2, “Pyrimidinyloxy benzene derivatives as herbicides” (FMC Corporation, priority 2015, dated 2021)

Key:
Type in all cases: in vivo
rice (Oryza sativa) = assay: Test B flooded paddy test, plant response rating; conditions: 250 g ai/ha; Flood; scale of 0 to 100 where 0 is no effect and 100 is complete control; 13 to 15 days
Summary of the method: (§1)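 Flooded 3 cm over soil; compound into paddy water; depth kept constant. Greenhouse 13–15 d.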

[1] = test system: ducksalad (Heteranthera limosa); assay: Test B flooded paddy test, plant response rating; conditions: 250 g ai/ha; Flood; scale of 0 to 100 where 0 is no effect and 100 is complete control; 13 to 15 days
Summary of the method: as §1

[2] = test system: sedge, umbrella (small-flower umbrella sedge, Cyperus difformis); assay: Test B flooded paddy test, plant response rating; conditions: 250 g ai/ha; Flood; scale of 0 to 100 where 0 is no effect and 100 is complete control; 13 to 15 days
Summary of the method: as §1

[3] = test system: barnyardgrass (Echinochloa crus-galli); assay: Test B flooded paddy test, plant response rating; conditions: 250 g ai/ha; Flood; scale of 0 to 100 where 0 is no effect and 100 is complete control; 13 to 15 days
Summary of the method: as §1

[4] = test system: pigweed (Amaranthus retroflexus); assay: Test A postemergence, visual injury rating; conditions: 0 to 100 scale, 0 is no effect, 100 is complete control, approximately 10 days
Summary of the method: (§2)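 Greenhouse pot test, loam/sand soil. Formulation: non-phytotoxic solvent mix plus surfactant. Pre: directed spray onto soil after sowing. Post: plants at 1–2 leaf, 2–10 cm. Rated visually vs untreated controls at ~10 d, 0 (no effect) to 100 (complete control).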

kochia (Kochia scoparia) [5] = assay: Test A postemergence, visual injury rating; conditions: 0 to 100 scale, 0 is no effect, 100 is complete control, approximately 10 days
Summary of the method: as §2

[6] = test system: giant foxtail (Setaria faberii); assay: Test A postemergence, visual injury rating; conditions: 0 to 100 scale, 0 is no effect, 100 is complete control, approximately 10 days
Summary of the method: as §2

[7] = test system: Italian ryegrass (Lolium multiflorum); assay: Test A postemergence, visual injury rating; conditions: 0 to 100 scale, 0 is no effect, 100 is complete control, approximately 10 days
Summary of the method: as §2

corn (Zea mays) = assay: Test A postemergence, visual injury rating; conditions: 0 to 100 scale, 0 is no effect, 100 is complete control, approximately 10 days
Summary of the method: as §2

[8] = test system: galium (catchweed bedstraw, Galium aparine); assay: Test A postemergence, visual injury rating; conditions: 0 to 100 scale, 0 is no effect, 100 is complete control, approximately 10 days
Summary of the method: as §2

[9] = test system: barnyardgrass (Echinochloa crus-galli); assay: Test A postemergence, visual injury rating; conditions: 0 to 100 scale, 0 is no effect, 100 is complete control, approximately 10 days
Summary of the method: as §2

[10] = test system: ragweed (common ragweed, Ambrosia elatior); assay: Test A postemergence, visual injury rating; conditions: 0 to 100 scale, 0 is no effect, 100 is complete control, approximately 10 days
Summary of the method: as §2

[11] = test system: wheat (Triticum aestivum); assay: Test A postemergence, visual injury rating; conditions: 0 to 100 scale, 0 is no effect, 100 is complete control, approximately 10 days
Summary of the method: as §2

[12] = test system: blackgrass (Alopecurus myosuroides); assay: Test A postemergence, visual injury rating; conditions: 0 to 100 scale, 0 is no effect, 100 is complete control, approximately 10 days
Summary of the method: as §2

[13] = test system: pigweed (Amaranthus retroflexus); assay: Test A preemergence, visual injury rating; conditions: for Plant response rating, Pigweed: 31 g ai/ha, 0 to 100 scale, 0 no effect, 100 complete control; for Pigweed plant response rating: 125 g ai/ha, 0 to 100 scale (0 no effect, 100 complete control)
Summary of the method: as §2

kochia (Kochia scoparia) [14] = assay: Test A preemergence, visual injury rating; conditions: for Plant response rating, Kochia: 31 g ai/ha, 0 to 100 scale, 0 no effect, 100 complete control; for Kochia plant response rating: 125 g ai/ha, 0 to 100 scale (0 no effect, 100 complete control)
Summary of the method: as §2

[15] = test system: giant foxtail (Setaria faberii); assay: Test A preemergence, visual injury rating; conditions: for Plant response rating, Foxtail, Giant: 31 g ai/ha, 0 to 100 scale, 0 no effect, 100 complete control; for Foxtail, Giant plant response rating: 125 g ai/ha, 0 to 100 scale (0 no effect, 100 complete control)
Summary of the method: as §2

[16] = test system: Italian ryegrass (Lolium multiflorum); assay: Test A preemergence, visual injury rating; conditions: for Plant response rating, Ryegrass, Italian: 31 g ai/ha, 0 to 100 scale, 0 no effect, 100 complete control; for Ryegrass, Italian plant response rating: 125 g ai/ha, 0 to 100 scale (0 no effect, 100 complete control)
Summary of the method: as §2

[17] = test system: barnyardgrass (Echinochloa crus-galli); assay: Test A preemergence, visual injury rating; conditions: for Plant response rating, Barnyardgrass: 31 g ai/ha, 0 to 100 scale, 0 no effect, 100 complete control; for Barnyardgrass plant response rating: 125 g ai/ha, 0 to 100 scale (0 no effect, 100 complete control)
Summary of the method: as §2

[18] = test system: ragweed (common ragweed, Ambrosia elatior); assay: Test A preemergence, visual injury rating; conditions: for Plant response rating, Ragweed: 31 g ai/ha, 0 to 100 scale, 0 no effect, 100 complete control; for Ragweed plant response rating: 125 g ai/ha, 0 to 100 scale (0 no effect, 100 complete control)
Summary of the method: as §2

Row | SMILES | Plant response rating, Rice (rice (Oryza sativa)) | Plant response rating, Ducksalad [1] | Plant response rating, Sedge, Umbrella [2] | Plant response rating, Barnyardgrass [3] | Pigweed plant response rating ([4]; 31 g ai/ha) | Pigweed plant response rating ([4]; 125 g ai/ha) | Kochia plant response rating (kochia (Kochia scoparia) [5]; 31 g ai/ha) | Kochia plant response rating (kochia (Kochia scoparia) [5]; 125 g ai/ha) | Foxtail, Giant plant response rating ([6]; 31 g ai/ha) | Foxtail, Giant plant response rating ([6]; 125 g ai/ha) | Ryegrass, Italian plant response rating ([7]; 31 g ai/ha) | Ryegrass, Italian plant response rating ([7]; 125 g ai/ha) | Corn plant response rating (corn (Zea mays); 31 g ai/ha) | Corn plant response rating (corn (Zea mays); 125 g ai/ha) | Galium plant response rating ([8]; 31 g ai/ha) | Galium plant response rating ([8]; 125 g ai/ha) | Barnyardgrass plant response rating ([9]; 31 g ai/ha) | Barnyardgrass plant response rating ([9]; 125 g ai/ha) | Ragweed plant response rating ([10]; 31 g ai/ha) | Ragweed plant response rating ([10]; 125 g ai/ha) | further results
1 | O=C(NCCC(F)(F)F)c1c(Br)cccc1Oc1ncc(Cl)cn1 [Compound 93] | 0 | 0 | 0 | 0 | 0 | 0 | 0 | 0 | 0 | 0 | 0 | 0 | 0 | 0 | 0 | 0 | 0 | 0 | 0 | 0 | Wheat plant response rating ([11]; 31 g ai/ha): 0; Wheat plant response rating ([11]; 125 g ai/ha): 0; Blackgrass plant response rating ([12]; 31 g ai/ha): 0; Blackgrass plant response rating ([12]; 125 g ai/ha): 0; Plant response rating, Pigweed [13]: 0; Pigweed plant response rating [13]: 0; Plant response rating, Kochia (kochia (Kochia scoparia) [14]): 0; Kochia plant response rating (kochia (Kochia scoparia) [14]): 0; Plant response rating, Foxtail, Giant [15]: 0; Foxtail, Giant plant response rating [15]: 0; Plant response rating, Ryegrass, Italian [16]: 0; Ryegrass, Italian plant response rating [16]: 0; Plant response rating, Barnyardgrass [17]: 0; Barnyardgrass plant response rating [17]: 0; Plant response rating, Ragweed [18]: 0; Ragweed plant response rating [18]: 0
2 | O=C(OCCC(F)(F)F)c1cc(Br)ccc1Oc1ncc(Cl)cn1 [Compound 94] | 0 | 0 | 0 | 0 | 0 | 0 | 0 | 0 | 0 | 0 | 0 | 0 | 0 | 0 | 0 | 0 | 0 | 0 | 0 | 0 | Wheat plant response rating ([11]; 31 g ai/ha): 0; Wheat plant response rating ([11]; 125 g ai/ha): 0; Blackgrass plant response rating ([12]; 31 g ai/ha): 0; Blackgrass plant response rating ([12]; 125 g ai/ha): 0; Plant response rating, Pigweed [13]: 0; Pigweed plant response rating [13]: 0; Plant response rating, Kochia (kochia (Kochia scoparia) [14]): 0; Kochia plant response rating (kochia (Kochia scoparia) [14]): 0; Plant response rating, Foxtail, Giant [15]: 0; Foxtail, Giant plant response rating [15]: 0; Plant response rating, Ryegrass, Italian [16]: 0; Ryegrass, Italian plant response rating [16]: 0; Plant response rating, Barnyardgrass [17]: 0; Barnyardgrass plant response rating [17]: 0; Plant response rating, Ragweed [18]: 0; Ragweed plant response rating [18]: 0
3 | CCON=C(C)c1c(Br)cccc1Oc1ncc(Cl)cn1 [Compound 95] | 0 | 30 | 0 | 0 | 10 | 20 | 0 | 0 | 0 | 60 | 0 | 0 | 0 | 10 | 10 | 40 | 0 | 30 | 0 | 0 | Wheat plant response rating ([11]; 31 g ai/ha): 0; Wheat plant response rating ([11]; 125 g ai/ha): 0; Blackgrass plant response rating ([12]; 31 g ai/ha): 0; Blackgrass plant response rating ([12]; 125 g ai/ha): 10; Plant response rating, Pigweed [13]: 0; Pigweed plant response rating [13]: 40; Plant response rating, Kochia (kochia (Kochia scoparia) [14]): 0; Kochia plant response rating (kochia (Kochia scoparia) [14]): 0; Plant response rating, Foxtail, Giant [15]: 0; Foxtail, Giant plant response rating [15]: 50; Plant response rating, Ryegrass, Italian [16]: 0; Ryegrass, Italian plant response rating [16]: 0; Plant response rating, Barnyardgrass [17]: 10; Barnyardgrass plant response rating [17]: 70; Plant response rating, Ragweed [18]: 0; Ragweed plant response rating [18]: 0
4 | CC(C)(C)CCOC(=O)c1c(Br)cccc1Oc1ncc(Cl)cn1 [Compound 96] | 0 | 0 | 0 | 0 | 0 | 10 | 0 | 0 | 0 | 10 | 0 | 0 | 0 | 20 | 0 | 20 | 0 | 10 | 0 | 0 | Wheat plant response rating ([11]; 31 g ai/ha): 0; Wheat plant response rating ([11]; 125 g ai/ha): 0; Blackgrass plant response rating ([12]; 31 g ai/ha): 0; Blackgrass plant response rating ([12]; 125 g ai/ha): 10; Plant response rating, Pigweed [13]: 0; Pigweed plant response rating [13]: 0; Plant response rating, Kochia (kochia (Kochia scoparia) [14]): 0; Kochia plant response rating (kochia (Kochia scoparia) [14]): 0; Plant response rating, Foxtail, Giant [15]: 0; Foxtail, Giant plant response rating [15]: 0; Plant response rating, Ryegrass, Italian [16]: 0; Ryegrass, Italian plant response rating [16]: 0; Plant response rating, Barnyardgrass [17]: 0; Barnyardgrass plant response rating [17]: 0; Plant response rating, Ragweed [18]: 0; Ragweed plant response rating [18]: 0
